This is an account of results in the RepoRT retention time repository (doi:10.1016/j.foodchem.2021.129757).

Holding throughout (conditions): stereoisomer not certain
Data set [1] is described as follows: RP, Merck LiChrospher RP-18, 250 × 4 mm, 5 µm, 35 °C, 0.3 mL/min, estimated dead time 6.7 min; A: water + 0.5% formic acid; B: acetonitrile + 0.5% formic acid; gradient (min/%B) 0/5 10/5 30/15 45/20 65/20 95/54 110/63 115/5 135/5.
Data set [2] in a line: Other, Phenomenex Kinetex PFP, 100 × 4.6 mm, 2.6 µm, 35 °C, 1.5 mL/min, estimated dead time 0.71 min; A: water + 0.1% trifluoroacetic acid, pH 2; B: acetonitrile + 0.1% trifluoroacetic acid, pH 2; gradient (min/%B) 0/1 7/7.5 14/7.6 17/10 18.5/12 20/12.5 24/30 25/90 25.1/1 32/1.
Data set [3] in a line: RP, Agilent ZORBAX Eclipse XDB-C18, 100 × 2.1 mm, 1.8 µm, 50 °C, 0.4 mL/min, estimated dead time 0.55 min; A: water + 0.1% formic acid, pH 3; B: methanol + 0.1% formic acid, pH 3; gradient (min/%B) 0/2 10/100 14.5/100 14.51/2 16.5/2.
The nature of data set [4]: Other, Phenomenex Kinetex PFP, 100 × 4.6 mm, 5 µm, 45 °C, 0.6 mL/min, estimated dead time 1.8 min; A: water + 0.1% trifluoroacetic acid, pH 2; B: methanol; gradient (min/%B) 0/40 20/72 21/40.
A short description of data set [5]: RP, Agilent ZORBAX RRHD Eclipse Plus C18, 50 × 2.1 mm, 1.8 µm, 30 °C, 0.4 mL/min, estimated dead time 0.28 min; A: water + 0.1% formic acid, pH 3; B: acetonitrile + 0.1% formic acid, pH 3; gradient (min/%B) 0/1 5/10 8/25 9.1/99 10/99 12/1.
Data set [6] is described as follows: RP, Agilent ZORBAX RRHD Eclipse Plus C18, 50 × 2.1 mm, 1.8 µm, 30 °C, 0.4 mL/min, estimated dead time 0.28 min; A: water + 0.1% formic acid, pH 3; B: acetonitrile + 0.1% formic acid, pH 3; gradient (min/%B) 0/1 5/10 8/25 9.1/99 10/99 12/99.
Data set [7] is described as follows: RP, Phenomenex Synergi Hydro-RP, 250 × 2 mm, 4 µm, 25 °C, 0.2 mL/min, estimated dead time 2.5 min; A: water + 0.1% formic acid, pH 3; B: acetonitrile + 0.1% formic acid, pH 3; gradient (min/%B) 0/0.5 7/0.5 12/12.5 25/16.3 47/35 48/65 50/65 50.1/0.5.
Data set [8] can be described thus: RP, Waters Atlantis T3, 100 × 2.1 mm, 3 µm, 40 °C, 0.3 mL/min, estimated dead time 0.73 min; A: water + 0.1% trifluoroacetic acid, pH 2; B: acetonitrile + 0.1% trifluoroacetic acid, pH 2; gradient (min/%B) 0/10 1/10 6/40 7/50 8/50 14/70 16/80 20/10 25/10.
Data set [9] can be described thus: RP, 150 × 2.1 mm, 2.6 µm, 40 °C, 0.35 mL/min, estimated dead time 0.94 min; A: water + 0.1% formic acid, pH 3; B: acetonitrile + 0.1% formic acid, pH 3; gradient (min/%B) 0/0 1/5 7/45 8.5/80 10.5/80 11/5 12/5.
Data set [10] in a line: RP, 150 × 2.1 mm, 2.6 µm, 40 °C, 0.35 mL/min, estimated dead time 0.94 min; A: water + 0.1% formic acid, pH 3; B: acetonitrile + 0.1% formic acid, pH 3; gradient (min/%B) 0/0 1/0 12.5/100 14/100 14.2/0 15/0.
Data set [11] is described as follows: RP, Waters ACQUITY UPLC HSS T3, 100 × 2.1 mm, 1.8 µm, 30 °C, 0.4 mL/min, estimated dead time 0.55 min; A: water + 0.1% formic acid, pH 3; B: acetonitrile + 0.1% formic acid, pH 3; gradient (min/%B) 0/0 2/0 15/100 22/100 22.1/0 26/0.
Data set [12] can be described thus: RP, Waters ACQUITY UPLC BEH Shield RP18, 150 × 2.1 mm, 1.7 µm, 40 °C, 0.4 mL/min, estimated dead time 0.83 min; A: water + 0.1% formic acid, pH 3; B: acetonitrile + 0.1% formic acid, pH 3; gradient (min/%B) 0/0 30/50 31/100 37/100 37.1/0.
The nature of data set [13]: RP, Agilent InfinityLab Poroshell 120 EC-C18, 100 × 3 mm, 2.7 µm, 25 °C, 0.4 mL/min, estimated dead time 1.1 min; A: water + 0.1% formic acid, pH 3; B: acetonitrile + 0.1% formic acid, pH 3; gradient (min/%B) 0/5 10/25 20/40 24/90 25/90 26/5 30/5.
The nature of data set [14]: RP, Phenomenex Kinetex EVO C18, 100 × 2.1 mm, 2.6 µm, 40 °C, 0.4 mL/min, estimated dead time 0.55 min; A: water + 0.2% formic acid; B: acetonitrile + 0.2% formic acid; gradient (min/%B) 0/5 0.5/5 7/95 8/95 8.5/5 12/5.
Data set [15] is described as follows: RP, Waters ACQUITY UPLC BEH C18, 100 × 2.1 mm, 1.7 µm, 65 °C, 0.4 mL/min, estimated dead time 0.55 min; A: water + 0.1% formic acid, pH 3; B: 80% acetonitrile + 20% acetone + 0.1% formic acid, pH 3; gradient (min/%B) 0/0 5/100 5.5/0 6/0.
Data set [16] can be described thus: RP, Waters ACQUITY UPLC HSS T3, 100 × 2.1 mm, 50 °C; A: water + 0.1% formic acid, pH 3; B: 30% methanol + 70% acetonitrile + 0.1% formic acid, pH 3; gradient (min/%B) 0/5 1/8 2/15 3/40 4/70 4.5/100 5/100 6.4/100 6.6/5 6.8/5 7/5.
Data set [17] can be described thus: RP, Phenomenex Luna Omega Polar C18, 100 × 2.1 mm, 1.6 µm, 40 °C, 0.5 mL/min, estimated dead time 0.44 min; A: water + 0.1% formic acid + 10 mM ammonium formate; B: acetonitrile; gradient (min/%B) 0/5 8/20 10/100 12/100 12.1/5 14/5.
Data set [18] in a line: RP, Phenomenex Synergi Hydro-RP, 150 × 2 mm, 4 µm, 30 °C, 0.5 mL/min, estimated dead time 0.6 min; A: water + 0.1% formic acid, pH 3; B: acetonitrile + 0.1% formic acid, pH 3; gradient (min/%B) 0/5 1/5 35/45 40/100 45/100.
A short description of data set [19]: RP, 50 × 0.5 mm, 2.7 µm, 35 °C, 0.01 mL/min, estimated dead time 0.62 min; A: water + 0.1% formic acid, pH 3; B: acetonitrile + 0.1% formic acid, pH 3; gradient (min/%B) 0/5 12/95 14/95 16/5.
The nature of data set [20]: RP, Waters ACQUITY UPLC BEH Shield RP18, 100 × 2.1 mm, 1.7 µm, 30 °C, 0.6 mL/min, estimated dead time 0.37 min; A: water + 0.1% formic acid, pH 3; B: acetonitrile + 0.1% formic acid, pH 3; gradient (min/%B) 0/0 2/0 7/10 22/95 22.1/0 26/0.
The nature of data set [21]: RP, Phenomenex Luna C18, 150 × 4.6 mm, 3 µm, 25 °C, 0.5 mL/min, estimated dead time 3.2 min; A: water + 0.1% formic acid, pH 3; B: acetonitrile + 0.1% formic acid, pH 3; gradient (min/%B) 0/0 30/30 35/40 50/80 52/80 60/0 65/0.
Data set [22] in a line: RP, Merck Supelco SUPELCOSIL LC-C18, 250 × 4.6 mm, 5 µm, 40 °C, 1 mL/min, estimated dead time 2.6 min; A: water + 0.1% trifluoroacetic acid, pH 2; B: acetonitrile + 0.1% trifluoroacetic acid, pH 2; gradient (min/%B) 0/5 45/35 47/75 49/35 50/5.

SMILES strings stand for the structures.

For the compound `O=C(O)c1ccccc1` [Benzoic acid], the LC retention time in data set [1] was 71.8 min; in data set [2] it was 15.4 min; in data set [3] it was 5.17 min; in [4], 7.84 min; in data set [5], 7.44 min; in data set [6], 7.28 min. The LC retention time in data set [7] was 35.5 min.
Regarding `O=C(O)c1cccc(O)c1O` [2,3-Dihydroxybenzoic acid], the LC retention time in data set [2] was 9.73 min; in [3], 3.5 min; in data set [8], 4.79 min; in data set [5], 5.18 min; in [6], 3.99 min.
For the compound `O=C(O)Cc1ccc(O)c(O)c1` [3,4-Dihydroxyphenylacetic acid], the LC retention time in data set [9] is 7.28 min; in [2], 15.3 min; in [3], 2.55 min; in data set [4], 3.74 min; in data set [5], 3.6 min; in data set [10] it was 7.07 min. In addition, the LC retention time in data set [6] was 1.47 min; in data set [7], 17 min.
Regarding `O=C(O)c1ccccc1O` [Salicylic acid], the LC retention time is 10.5 min in [11]; 81.6 min in data set [1]; 18.9 min in [2]; 12.8 min in [12]; 5.25 min in data set [3]; 8.13 min in data set [5]. Also, the LC retention time in data set [6] is 8.16 min; in data set [7], 37.4 min.
For the compound `O=C(O)c1ccc(O)cc1O` [2,4-Dihydroxybenzoic acid], the LC retention time is 10.9 min in [2]; 5.01 min in [8]; 6.36 min in [13]; 5.18 min in data set [5]; 3.99 min in [6].
Turning to `O=Cc1ccc(O)cc1` [4-Hydroxybenzaldehyde], the LC retention time in data set [2] is 9.81 min; in data set [14], 3.43 min; in data set [3], 3.42 min; in data set [5] it was 5.23 min; in data set [15] it was 1.92 min; in data set [6], 4.4 min. For the same compound, the LC retention time in data set [16] worked out at 3.28 min.
As to `COc1cc(CC(=O)O)ccc1O` [Homovanillic acid], the LC retention time in data set [11] was 8.67 min; in [2], 18.8 min; in [12], 10.3 min; in data set [17] it was 4.17 min; in [18], 10.2 min; in data set [19], 3.03 min. In addition, the LC retention time is 3.69 min in [3]; 16 min in data set [20]; 6.83 min in data set [13]; 5.94 min in [5]; 2.83 min in data set [6]; 16.4 min in data set [21].
With `O=C(CCc1ccc(O)cc1)c1c(O)cc(O)cc1OC1OC(CO)C(O)C(O)C1O` (centres undefined) [Phloridzin], the LC retention time in data set [11] is 9.96 min; in data set [1] it was 81.1 min; in data set [2], 24.6 min; in data set [12] it was 14.2 min; in [22], 30.8 min; in [8], 8.22 min. The LC retention time in [7] is 39.6 min.
